# Read-outs that look alike come from different tables or passages of the source. Starred links: 1 amine or outer side, 2 acyl side, 3 side chain; linkers in the order of their positions; H or OH if unused. Positions of bridges follow the written chain, without caps; N, C: chain ends. Non-standard residues stand in square brackets, D forms with d. Residues, ends and D or L forms follow the SMILES beside them. Groups on a side chain read outwards from the residue. *: point of attachment. Ala(1-CH2CO2H-4-piperidyl) = N[C@@H](CC1CCN(CC(=O)O)CC1)C(=O)O; Phe(3-OCH2COOH) = N[C@@H](Cc1cccc(OCC(=O)O)c1)C(=O)O; Phe(4-CONH2) = NC(=O)c1ccc(C[C@H](N)C(=O)O)cc1; Phe(4-COOH) = N[C@@H](Cc1ccc(C(=O)O)cc1)C(=O)O; Trp(7-aza) = N[C@@H](Cc1c[nH]c2ncccc12)C(=O)O; Piperazinyl(4-CH2COOH) = O=C(O)CN1CCN(*)CC1; Piperidinyl(4-CH2COOH) = O=C(O)CC1CCN(*)CC1; Bip = N[C@@H](Cc1ccc(-c2ccccc2)cc1)C(=O)O; Gly(decyl) = CCCCCCCCCC[C@H](N)C(=O)O; Gly(N(CH2)3COOH) = O=C(O)CCCNCC(=O)O; X1 = CCCCCCC[C@H](N[*:1])C(=O)[*:2]; NMeCha = CN[C@@H](CC1CCCCC1)C(=O)O; NMeF = CN[C@@H](Cc1ccccc1)C(=O)O; 4Pal = N[C@@H](Cc1ccncc1)C(=O)O; NMeE = CN[C@@H](CCC(=O)O)C(=O)O; Cha = N[C@@H](CC1CCCCC1)C(=O)O; Gly(N(CH2)3NH2) = NCCCNCC(=O)O; NMeA = CN[C@@H](C)C(=O)O; Dap = NC[C@H](N)C(=O)O; CO = O=C([*:1])[*:2]; NPrGly = CCCNCC(=O)O; Sar = CNCC(=O)O
# Key:
# Myostatin = biological target: T1, Myostatin (Homo sapiens, UniProt O14793); assay: HepG2 reporter gene assay, Evaluation Procedure (2): 2-concentrations assay, myostatin inhibition; format: cell-based; settings: HepG2
# T1 construct: active myostatin (also called mature myostatin) is a homodimer consisting of two C-terminal growth factor domains; purchased R&D systems 788-G8/CF
# T1 sequence (O14793 267-375): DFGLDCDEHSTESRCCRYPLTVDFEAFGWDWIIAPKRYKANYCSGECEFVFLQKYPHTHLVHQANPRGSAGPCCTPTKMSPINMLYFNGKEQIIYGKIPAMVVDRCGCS
# Method in brief: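 HepG2 cells (HB-8065, ATCC) carrying the transfected pGL3(CAGA)12-luc reporter plasmid were treated with myostatin (788-G8/CF, R&D systems) at a final concentration of 10 ng/mL plus peptide and incubated at 37°C, 5% CO2 for 20 to 24 hours. Luminescence was read after adding PBS mixed 1:1 with One-Glo substrate, and inhibition rate was calculated.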
# GDF-11 = biological target: T2, GDF-11 (Homo sapiens, UniProt O95390); assay: HepG2 reporter gene assay, Evaluation Procedure (2): 2-concentrations assay, GDF-11 inhibition; format: cell-based; settings: for inhibition at 0.03 µM: HepG2, peptide 30nM, read-out: GDF11 Inhibition 30nM; for inhibition at 0.03 µM / inhibition at 0.1 µM: GDF-11 10 ng/mL; for inhibition at 0.1 µM: HepG2, peptide 100nM, read-out: GDF11 Inhibition 100nM; for inhibition: read-out: inhibition rate (GDF-11 inhibition assay)
# T2 construct: purchased R&D systems 1958-GD-G8/CF
# T2 sequence (O95390 299-407): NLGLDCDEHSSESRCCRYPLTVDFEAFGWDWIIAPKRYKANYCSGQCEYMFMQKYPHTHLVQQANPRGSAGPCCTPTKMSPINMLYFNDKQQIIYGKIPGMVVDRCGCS
# Method in brief: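 HepG2 cells carrying the transfected pGL3(CAGA)12-luc reporter, a pGL3 vector with luciferase placed downstream of 12 CAGA repeats, were stimulated with GDF-11 at a final 10 ng/mL together with test peptide. Blank wells received no GDF-11 and no peptide. Plates were incubated 20 to 24 hours at 37°C with 5% CO2. Luminescence from One-Glo substrate was read to calculate percent inhibition.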
# [1] = peptide 30nM, Myostatin 10 ng/mL, read-out: Myostatin Inhibition 30nM
# [2] = peptide 100nM, Myostatin 10 ng/mL, read-out: Myostatin Inhibition 100nM
SMILES,inhibition at 0.03 µM (Myostatin; [1]),inhibition at 0.1 µM (Myostatin; [2]),inhibition at 0.03 µM (GDF-11),inhibition at 0.1 µM (GDF-11),"inhibition at 0.1 µM (Myostatin; Table 7-3/7-4, myostatin 10 ng/mL, peptide at the higher of the 2 concentrations, read-out: inhibition rate (myostatin inhibition assay))","inhibition at 0.03 µM (Myostatin; Table 7-3/7-4, myostatin 10 ng/mL, peptide at the lower of the 2 concentrations, read-out: inhibition rate (myostatin inhibition assay))","inhibition (GDF-11; HepG2, first GDF-11 column of Table 7-3/7-4, GDF-11 10 ng/mL, peptide at the lower of the 2 concentrations)","inhibition (GDF-11; HepG2, second GDF-11 column of Table 7-3/7-4, GDF-11 10 ng/mL, peptide at the higher of the 2 concentrations)"
CC[C@H](C)[C@@H]1NC(=O)[C@H](Cc2ccccc2)N(C)C(=O)[C@H](Cc2ccc(O)cc2)NC(=O)[C@H](Cc2c[nH]c3ccccc23)NC(=O)[C@H](CCCNC(=N)N)NC(=O)[C@H](C)NC(=O)CSC[C@H](C(N)=O)NC(=O)[C@H](Cc2ccccc2)N(C)C(=O)[C@H](C)N(C)C(=O)[C@H](CC(C)C)NC(=O)[C@H](Cc2ccccc2)N(C)C(=O)[C@H](CCCNC(=N)N)NC(=O)[C@H](Cc2ccc(O)cc2)NC(=O)[C@H](Cc2ccc(O)cc2)NC(=O)CN(C)C1=O [Myostatin_000099_15dc] ({CH2CO}-ARWY[NMeF]I[Sar]YYR[NMeF]L[NMeA][NMeF][dC]-NH2; thioether N-15),69%,89%,0%,12%,,,,
CC[C@H](C)[C@@H]1NC(=O)[C@H](Cc2ccccc2)N(C)C(=O)[C@H](Cc2ccc(O)cc2)NC(=O)[C@H](Cc2c[nH]c3ccccc23)NC(=O)[C@H](C)NC(=O)CN(CCCN)C(=O)CSC[C@H](C(=O)N[C@@H](CN)C(N)=O)NC(=O)[C@H](Cc2ccccc2)N(C)C(=O)[C@H](C)N(C)C(=O)[C@H](CC(C)C)NC(=O)[C@H](Cc2ccccc2)N(C)C(=O)[C@H](CCCNC(=N)N)NC(=O)[C@H](Cc2ccc(O)cc2)NC(=O)[C@H](Cc2ccc(O)cc2)NC(=O)CN(C)C1=O [Myostatin_99_Variant_09] ({CH2CO}-[Gly(N(CH2)3NH2)]AWY[NMeF]I[Sar]YYR[NMeF]L[NMeA][NMeF][dC][Dap]-NH2; thioether N-15),65%,90%,0%,11%,,,,
CC[C@H](C)[C@@H]1NC(=O)[C@H](Cc2ccccc2)N(C)C(=O)[C@H](Cc2ccc(O)cc2)NC(=O)[C@H](Cc2c[nH]c3ncccc23)NC(=O)[C@H](C)NC(=O)[C@H](C)NC(=O)CSC[C@H](C(=O)NCC(=O)N[C@H](CCC(=O)O)C(=O)NCC(=O)N[C@H](CCCCN)C(=O)O)NC(=O)[C@H](Cc2ccccc2)N(C)C(=O)[C@H](C)N(C)C(=O)[C@H](CC(C)C)NC(=O)[C@H](Cc2ccccc2)N(C)C(=O)[C@H](CCCNC(=N)N)NC(=O)[C@H](Cc2ccc(C(=O)O)cc2)NC(=O)[C@H](Cc2ccccc2)NC(=O)CN(C)C1=O [Myostatin_99_v28] ({CH2CO}-AA[Trp(7-aza)]Y[NMeF]I[Sar]F[Phe(4-COOH)]R[NMeF]L[NMeA][NMeF][dC]G[dE]G[dK]-OH; thioether N-15),69%,92%,0%,20%,,,,
CCCCCCC[C@@H]1NC(=O)[C@H](Cc2ccccc2)N(C)C(=O)[C@H](CCCNC(=N)N)NC(=O)[C@H](Cc2ccc(C(=O)O)cc2)NC(=O)[C@H](CC2CCN(CC(=O)O)CC2)NC(=O)CN(C)C(=O)[C@H]([C@@H](C)CC)NC(=O)[C@H](Cc2ccccc2)N(C)C(=O)[C@H](Cc2ccc(O)cc2)NC(=O)[C@H](Cc2c[nH]c3ccccc23)NC(=O)[C@H](C)NC(=O)CN(CCCC(=O)O)C(=O)CSC[C@H](C(=O)O)NC(=O)[C@H](Cc2ccccc2)N(C)C(=O)[C@H](C)N(C)C1=O [Myostatin_99_v233] ({CH2CO}-[Gly(N(CH2)3COOH)]AWY[NMeF]I[Sar][Ala(1-CH2CO2H-4-piperidyl)][Phe(4-COOH)]R[NMeF][X1][NMeA][NMeF][dC]-OH; thioether N-15),50%,85%,8%,0%,,,,
CCCCCCCCCC[C@@H]1NC(=O)[C@H](Cc2ccccc2)N(C)C(=O)[C@H](CCCNC(=N)N)NC(=O)[C@H](Cc2ccc(C(=O)O)cc2)NC(=O)[C@H](Cc2cccc(OCC(=O)O)c2)NC(=O)CN(CCC)C(=O)[C@H]([C@@H](C)CC)NC(=O)[C@H](Cc2ccccc2)N(C)C(=O)[C@H](Cc2ccc(O)cc2)NC(=O)[C@H](Cc2c[nH]c3ccccc23)NC(=O)[C@H](C)NC(=O)[C@H](C)NC(=O)CSC[C@H](C(=O)N2CCC(CC(=O)O)CC2)NC(=O)[C@H](Cc2ccccc2)N(C)C(=O)[C@H](CCC(=O)O)N(C)C1=O [Myostatin_99_v334] ({CH2CO}-AAWY[NMeF]I[NPrGly][Phe(3-OCH2COOH)][Phe(4-COOH)]R[NMeF][Gly(decyl)][NMeE][NMeF][dC]-{Piperidinyl(4-CH2COOH)}; thioether N-15),,,,,99%,90%,0%,0%
CCCCCCCCCC[C@@H]1NC(=O)[C@H](CC2CCCCC2)NC(=O)[C@H](CCCNC(=N)N)NC(=O)[C@H](Cc2ccc(C(=O)O)cc2)NC(=O)[C@H](CCCCNC(=O)N2CCN(CC(=O)O)CC2)NC(=O)[C@H]2CCCN2C(=O)[C@H]([C@@H](C)CC)NC(=O)[C@H](CC2CCCCC2)N(C)C(=O)[C@H](Cc2ccc(O)cc2)NC(=O)[C@H](Cc2c[nH]c3ccccc23)NC(=O)[C@@H](CCC(=O)O)NC(=O)[C@H](C)NC(=O)CSC[C@H](C(=O)N2CCN(CC(=O)O)CC2)NC(=O)[C@H](Cc2ccccc2)N(C)C(=O)[C@H](C)N(C)C1=O [Myostatin_99_v247] ({CH2CO}-A[dE]WY[NMeCha]I[dP]K([CO-Piperazinyl(4-CH2COOH)])[Phe(4-COOH)]R[Cha][Gly(decyl)][NMeA][NMeF][dC]-{Piperazinyl(4-CH2COOH)}; thioether N-15),68%,94%,0%,6%,,,,
CC[C@H](C)[C@@H]1NC(=O)[C@H](Cc2ccccc2)N(C)C(=O)[C@H](Cc2ccc(O)cc2)NC(=O)[C@H](Cc2ccc(-c3ccccc3)cc2)NC(=O)[C@H](C)NC(=O)CN(CCCC(=O)O)C(=O)CSC[C@H](C(=O)O)NC(=O)[C@H](Cc2ccccc2)N(C)C(=O)[C@H](C)N(C)C(=O)[C@H](CC(C)C)NC(=O)[C@H](Cc2ccccc2)N(C)C(=O)[C@H](CCCNC(=N)N)NC(=O)[C@H](Cc2ccc(C(N)=O)cc2)NC(=O)[C@H](Cc2ccc(C(=O)O)cc2)NC(=O)[C@H](C)N(C)C1=O [Myostatin_99_v102] ({CH2CO}-[Gly(N(CH2)3COOH)]A[Bip]Y[NMeF]I[NMeA][Phe(4-COOH)][Phe(4-CONH2)]R[NMeF]L[NMeA][NMeF][dC]-OH; thioether N-15),60%,81%,0%,0%,,,,
CC[C@H](C)[C@@H]1NC(=O)[C@H](Cc2ccccc2)N(C)C(=O)[C@H](Cc2ccc(O)cc2)NC(=O)[C@H](Cc2c[nH]c3ncccc23)NC(=O)[C@H](C)NC(=O)[C@H](C)NC(=O)CSC[C@H](C(=O)NCC(=O)N[C@H](CCC(=O)O)C(=O)NCC(=O)N[C@H](CCCCN)C(=O)O)NC(=O)[C@H](Cc2ccccc2)N(C)C(=O)[C@H](C)N(C)C(=O)[C@H](CC(C)C)NC(=O)[C@H](Cc2ccccc2)N(C)C(=O)[C@H](CCCNC(=N)N)NC(=O)[C@H](Cc2ccc(C(=O)O)cc2)NC(=O)[C@H](Cc2ccncc2)NC(=O)CN(C)C1=O [Myostatin_99_v29] ({CH2CO}-AA[Trp(7-aza)]Y[NMeF]I[Sar][4Pal][Phe(4-COOH)]R[NMeF]L[NMeA][NMeF][dC]G[dE]G[dK]-OH; thioether N-15),57%,81%,0%,0%,,,,

# Source: patent EP4786487A1, “PEPTIDE” (Peptidream Inc, priority 2023, dated 2025)
